pIC50: −log10 of the molar value. “And” between values parts separate entries of the source, which are not always exact repeats. Equal entries are not always repeated.
System: 349418-098-R-PDC spheroids, viability, % test/control
Assay: Anticancer human tumor 349418-098-R-PDC patient-derived lung adenocarcinoma cell line growth inhibition [IpAb]
Details: spheroids with HUVEC and MSC; for viability, T/C: stronger effect = lower value; for pIC50: curve of compound; for IC50: compound alone, run of 05/18/2021
Text: Combinatorial screen of targeted agents with ipatasertib and abemaciclib in multi-cell type tumor spheroids
A high-throughput screen of multi-cell type tumor spheroids was designed to identify active combinations of targeted small molecules and ipatasertib or abemaciclib. Complex spheroids include a stromal component modeled by human endothelial cells (HUVEC) and fibroblasts modeled by human mesenchymal stem cells (MSCs). The concentration ranges selected for each drug and investigational agent were based upon clinically achievable concentrations if the clinical Cmax of the agent was known.
Compounds. The drugs and investigational agents: ipatasertib (NSC767898), abemaciclib(NSC768073), selumetinib (NSC741078), trametinib (758246), adavosertib (NSC754352), everolimus (NSC733504), sapanisertib (NSC764658), vemurafenib (NSC761431), venetoclax (NSC766270), copanlisib (NSC809693), apelisib (NSC765974), palbociblib (NSC758247), vemurafenib (NSC761431), dabrafenib (NSC764134), ravoxertinib (NSC781343), BMS-387032 (NSC767048), sotorasib (NSC818433), talazoparib (NSC767125) and afursertib (NSC778305), were obtained from the National Cancer Institute (NCI) Developmental Therapeutics Program Chemical Repository. The FDA-approved anticancer drug set is available from the NCI Developmental Therapeutics Program. […] The stock solutions were prepared in dimethyl sulfoxide (DMSO, Sigma-Aldrich, St. Louis, MO, cat. D2650) at 800-fold the tested concentration and stored at -70 degrees C prior to their use. All drugs and investigational agents were tested over a range starting from a high concentration at or near the clinical Cmax and decreasing in half-log increments. If the clinical Cmax for an agent had not been determined, the highest concentration tested was 10 microM.
NCI60 Cell Culture. NCI60 cell lines were obtained from the NCI Developmental Therapeutics Program Tumor Repository. For each lot of cells, the Repository performed Applied Biosystems AmpFLSTR Identifiler testing with PCR amplification to confirm consistency with the published Identifier STR profile for each cell line. Cells were kept in continuous culture for no more than 20 passages. The optimal seeding densities for each of the cell lines at each time point assessed were determined prior to performing the concentration response studies. Briefly, the NCI60 human tumor lines were grown as monolayers in RPMI 1640 medium supplemented with 10% FBS and 2 mmol/L L-glutamine.
An additional 9 lines were from the NCI60 cell line panel including MDA-MB-231 breast carcinoma, MDA-MB-468 breast carcinoma, MCF7 breast carcinoma, Hs578T breast carcinoma, MALME-3M melanoma, SK-MEL-2 melanoma, SK-OV-3 ovarian carcinoma, DU-145 prostate carcinoma, PC-3 prostate carcinoma, all cell lines along with major genetic alterations are listed on Table 2. Pooled donor human umbilical vein endothelial cells (HUVEC, Lonza, cat. CC-2519) and human mesenchymal stem cells (hMSC, Lonza, cat. PT-2501) were purchased from Lonza (Walkersville, MD).
PDMR cell lines were grown in complete medium (DC medium): Dulbecco's modified Eagle's medium (DMEM)/F12 supplemented with 5% fetal bovine serum (FBS), 2 mM L-glutamine, 100 U/mL penicillin and 100 µg/ml streptomycin, 0.4 µg/ml hydrocortisone, 10 ng/ml epidermal growth factor (EGF) recombinant human protein, 24 µg/mL adenine, and 0.1 mg/mL primocin. During culture from frozen stock vials, PDMR cells were cultured in the same medium containing 10 µM Y-27632 (see Table 3). The PDCs were cultured in complete DMEM/F12 media without 10 microM Y-27632 dihydrochloride for at least two passages prior to the screen. The pooled donor HUVEC and hMSC were cultured in endothelial cell growth medium 2 (PromoCell, Heidelberg, Germany, cat. C-22011) and mesenchymal stem cell growth medium 2 (PromoCell, cat. C-28009), respectively. For all experiments, HUVEC and hMSC were used at passages </=5.
[…]
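Further: spheroids exposed to compounds for 7 days.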

| SMILES | pIC50 | viability, T/C (compound 0.0316 µM) | viability, T/C (compound 0.1 µM) | viability, T/C (compound 0.316 µM) | viability, T/C (compound 1 µM) | viability, T/C (compound 3.16 µM) | viability, T/C (compound 10 µM) | other results |
| --- | --- | --- | --- | --- | --- | --- | --- | --- |
| C=CC(=O)N1CCN(c2nc(=O)n(-c3c(C)ccnc3C(C)C)c3nc(-c4c(O)cccc4F)c(F)cc23)C(C)C1 (stereo not given) | 5.02 and 5.15 | 109% and 107% | 107% and 104% | 105% and 94.1% | 102% and 96.4% | 72.9% and 76.2% | 48.9% and 38% |  |
| CC(C)(C)c1cnc(CSc2cnc(NC(=O)C3CCNCC3)s2)o1 | 7.29 and 7.27 |  |  |  |  |  |  | viability, T/C (compound 0.00949 µM): 105% and 108%; viability, T/C (compound 0.03 µM): 90.5% and 85.3%; viability, T/C (compound 0.0949 µM): 2.46% and 15.2%; viability, T/C (compound 0.3 µM): 2.23% and 2.41%; viability, T/C (compound 0.949 µM): 3.07% and 3.11%; viability, T/C (compound 3 µM): 2.08% and 2.15% |
| CC(C)NCC(C(=O)N1CCN(c2ncnc3c2C(C)CC3O)CC1)c1ccc(Cl)cc1 (stereo not given) |  |  | 84.9% [middle of 13 runs] |  | 24.5% [middle of 13 runs] | 11.8% [middle of 13 runs] | 7.07% [middle of 11 runs] | IC50: 350 nM [middle of 13 runs] |
| CCN1CCN(Cc2ccc(Nc3ncc(F)c(-c4cc(F)c5nc(C)n(C(C)C)c5c4)n3)nc2)CC1 |  | 44.2% [middle of 13 runs] | 26.4% [middle of 13 runs] | 19.7% [middle of 12 runs] | 15.5% [middle of 13 runs] |  |  | viability, T/C (compound 0.01 µM): 74.5% [middle of 13 runs]; IC50: 28.5 nM [middle of 12 runs] |
| COc1c(OCCCN2CCOCC2)ccc2c3n(c(=NC(=O)c4cnc(N)nc4)nc12)CCN3 | 8.04 and 7.92 | 11.5% and 15.2% | 7.98% and 6.59% | 7.2% and 6.31% | 6.67% and 5.78% |  |  | viability, T/C (compound 0.00316 µM): 98.7% and 85.4%; viability, T/C (compound 0.01 µM): 45.2% and 56.9% |
| Cc1nc(NC(=O)N2CCCC2C(N)=O)sc1-c1ccnc(C(C)(C)C(F)(F)F)c1 (stereo not given) | 6.55 and 6.60 | 87.3% and 95.4% | 81.1% and 75.3% | 46.4% and 43.7% | 18.9% and 22.8% | 14% and 15.1% | 11.2% and 14.1% |  |
| Cn1cnc2c(F)c(Nc3ccc(Br)cc3Cl)c(C(=O)NOCCO)cc21 |  |  |  |  |  |  |  | viability, T/C (compound 0.00949 µM): 54.9% and 51.1%; viability, T/C (compound 0.03 µM): 47.6% and 37.5%; viability, T/C (compound 0.0949 µM): 49.2% and 43%; viability, T/C (compound 0.3 µM): 58.2% and 42.2%; viability, T/C (compound 0.949 µM): 37.5% and 27.2%; viability, T/C (compound 3 µM): 12.6% and 11.1% |
| Cn1nccc1Nc1nccc(-c2ccn(C(CO)c3ccc(Cl)c(F)c3)c(=O)c2)n1 (stereo not given) |  | 50.1% and 54.6% | 42.6% and 45.7% | 57.2% and 49.9% | 44.4% and 49.7% | 29% and 30.1% | 19.7% and 21.3% |  |

Now from value to compound, other results behind:

| pIC50 | SMILES | viability, T/C (compound 0.0316 µM) | viability, T/C (compound 0.1 µM) | viability, T/C (compound 0.316 µM) | viability, T/C (compound 1 µM) | viability, T/C (compound 3.16 µM) | viability, T/C (compound 10 µM) | other results |
| --- | --- | --- | --- | --- | --- | --- | --- | --- |
| 6.74 and 6.69 | C=CCn1c(=O)c2cnc(Nc3ccc(N4CCN(C)CC4)cc3)nc2n1-c1cccc(C(C)(C)O)n1 | 91.8% and 105% | 84.5% and 88.7% | 18.8% and 26.7% | 5.04% and 4.87% | 4.87% and 4.84% | 6.19% and 4.54% |  |
| 7.84 and 7.74 | CC(=O)c1c(C)c2cnc(Nc3ccc(N4CCNCC4)cn3)nc2n(C2CCCC2)c1=O |  |  |  |  |  |  | viability, T/C (compound 0.000949 µM): 97.3% and 86.4%; viability, T/C (compound 0.003 µM): 82.9% and 78.7%; viability, T/C (compound 0.00949 µM): 61.7%; viability, T/C (compound 0.03 µM): 30.8% and 42.2%; viability, T/C (compound 0.0949 µM): 24.5% and 21.1%; viability, T/C (compound 0.3 µM): 16.8% and 16.9% |
| 8.76 and 8.85 | CC(C)n1nc(-c2ccc3oc(N)nc3c2)c2c(N)ncnc21 | 8.02% and 7.35% | 7.57% and 6.78% |  |  |  |  | viability, T/C (compound 0.000316 µM): 93.8% and 89.8%; viability, T/C (compound 0.001 µM): 72.9% and 60.3%; viability, T/C (compound 0.00316 µM): 24.7% and 26.2%; viability, T/C (compound 0.01 µM): 11% and 10.4% |
| 5.29 and 5.26 | CC1(C)CCC(CN2CCN(c3ccc(C(=O)NS(=O)(=O)c4ccc(NCC5CCOCC5)c([N+](=O)[O-])c4)c(Oc4cnc5[nH]ccc5c4)c3)CC2)=C(c2ccc(Cl)cc2)C1 | 110% and 115% | 109% and 94.8% | 107% and 101% | 103% and 106% | 82.2% and 92.3% | 6.95% and 3.46% |  |
| 5.73 and 5.96 | CCCS(=O)(=O)Nc1ccc(F)c(C(=O)c2c[nH]c3ncc(-c4ccc(Cl)cc4)cc23)c1F | 69.3% and 61.6% | 52% and 49.9% | 51.7% and 55.5% | 49.4% and 45.2% | 50.4% and 46.2% | 22.7% and 19.6% |  |
| 6.70 and 6.77 | Cn1ncc(Cl)c1-c1cc(C(=O)NC(CN)Cc2cccc(F)c2)sc1Cl (stereo not given) | 90% and 71.9% | 64.6% and 67% | 43% and 30.5% | 10.9% and 16.7% | 7.08% and 7.12% | 0.13% and 0.32% |  |
| < 7.00 | Cn1ncnc1[C@H]1c2n[nH]c(=O)c3cc(F)cc(c23)N[C@@H]1c1ccc(F)cc1 | 83.4% and 81.5% | 75.5% and 78.4% |  |  |  |  | viability, T/C (compound 0.000316 µM): 96.5% and 98.7%; viability, T/C (compound 0.001 µM): 100% and 99.5%; viability, T/C (compound 0.00316 µM): 94.5% and 104%; viability, T/C (compound 0.01 µM): 94.8% and 100% |

Reference: PubChem BioAssay AID2060340 (Molecular Pharmacology Branch, DTP, NCI, 2025)
